The target of one test is Bcl-2 family proteins. To be noted: Oltersdorf et al., 2005; read-out: binding constant obtained earlier; cited from earlier work.
For test [1], the system named is GST-Bcl-2 fusion proteins. Kind of test: FPA competition assay with FITC-Bid BH3 peptide. The test is classed as binding, human. To be noted: 100 nM GST-Bcl-2 fusion proteins, 5 nM FITC-Bid BH3. On the procedure: 100 nM of GST-Bcl-2 fusion proteins were incubated with various concentrations of EGCG or control compound ECG (“C”) for 2 min in PBS buffer in 50 μL. Then, 5 nM FITC-conjugated-Bid BH3 peptide was added, bringing final volume to 100 μL and final DMSO concentration to 1%. Fluorescence polarization was measured after 20 minutes.
C1.3 FPA competition assay for Bcl-2-binding compounds. The green tea compound […] has been reported to bind Bcl-2 and Bcl-XL (Leone et al., 2003). The ability of EGCG to compete with fluorochrome-labeled BH3 peptides was confirmed by FPA. […] This compound therefore can serve as a positive control when performing high throughput screens of any compound library, including the NIH library.

Test [2] concerns the target T1, GST-Rab7 (Homo sapiens, UniProt P51149).
T1 construct: made in house; host or cells: bacteria
Kind of test: Competition of nucleotides with Bodipy-FL-GTP for bead-bound GST-Rab7. The test is classed as binding. As to conditions: 10 nM GST-Rab7 preloaded, 1 μM GTP*. The source says: The signal to background levels are compatible with homogeneous analysis of the binding of the fluorescent GTP analog. Moreover, the assay is conservative with respect to protein, using <1 pmol of protein per well.

A further test addresses GST-GFP (Schistosoma japonicum, UniProt P08515). Kind of test: biochemical.
The target in test [3] is T1, GST-Rab7. The test can be described thus: Bodipy-FL-GTP binding to and dissociation from bead-bound GST-Rab7. Here is the method:
A fluorescent GTP-binding assay capable of being monitored by flow cytometry was developed and optimized using GST-Rab7 protein and Bodipy-FL-GTP (GTP*). […] Values are usually expressed as 1000 fluorescence equivalents of fluorescein in free solution (kMESF).
The binding of purified GST-Rab7 to bGSH was measured by using increasing concentrations (1.0-316.0 nM) of GST-Rab7 with a fixed amount of bGSH (−10,000 beads/reaction and excess (1.0 µM) GTP*).
In order to measure the rate of GTP* dissociation from bead-bound Rab7, bGSH were pre-loaded with 100 nM GST-Rab7 and incubated with 1 µM GTP* at 37° C. for 2 h. Dissociation of GTP* from the beads was then measured at 37° C. both for simple dilution with buffer as well as upon addition of 1000-fold higher (1 mM) non-fluorescent GTP (FIG. 6). The calculated half-time was 72.7s. The rate of dissociation in the presence of 1 mM unlabeled GTP alone was 9.6×10^−3s^−1.

A further test concerns Ras superfamily members. The test can be described thus: Multiplex Bodipy-FL-GTP binding and GTP competition. On the procedure:
The Bodipy-FL-GTP binding assay established using wild-type GST-Rab7 was adapted for multiplex, high-throughput assays by Sklar and colleagues.
384-well microplates are configured with 64 control wells (columns 1 and 2 unblocked, and columns 23 and 24 with 1 mM GTP), leaving 320 wells to which test compounds are added as per the Roadmap compound plates supplied. Compounds from the molecular library and GTP controls are added in 5 μl, Bodipy-FL-GTP is added in 5 μl, and GST-G protein-coated beads are added in 5 μl. […] The bead sets are coated by mixing each “address level of red fluorescence” bead type individually in the presence of ˜60 nM GST-small G protein for two hours with 5,000 beads per microliter. The sets are then combined together, centrifuged, and resuspended just before addition to the assay plate. The beads are kept in suspension during the competitive assay using rotation at 22° C. for 2 hours, then the plate is read at room temperature at a cytometer.

One may read the EC50 as the concentration at which the effect is half-maximal. Read a high EC50 as a need for much substance. Usually Kd stands for the concentration at which binding is half-saturated. A low value points to a tighter complex.

T1 sequence (P51149 whole entry): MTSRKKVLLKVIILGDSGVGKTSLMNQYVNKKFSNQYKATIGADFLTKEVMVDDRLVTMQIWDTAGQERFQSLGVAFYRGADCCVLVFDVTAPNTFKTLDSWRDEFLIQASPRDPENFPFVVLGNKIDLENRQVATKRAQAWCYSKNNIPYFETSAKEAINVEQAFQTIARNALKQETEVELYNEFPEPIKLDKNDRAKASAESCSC
GST-GFP, sequence (P08515 2-218, added parts left off): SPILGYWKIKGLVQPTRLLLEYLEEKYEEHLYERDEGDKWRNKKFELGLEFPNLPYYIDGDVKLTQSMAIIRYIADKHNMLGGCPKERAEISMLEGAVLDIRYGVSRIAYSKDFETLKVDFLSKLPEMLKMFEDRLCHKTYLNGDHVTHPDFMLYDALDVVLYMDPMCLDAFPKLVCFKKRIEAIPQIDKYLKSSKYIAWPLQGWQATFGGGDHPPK
Method for GST-GFP: The standard assay for monitoring the concentration of free glutathione was performed in ten microliters of HPSM buffer with 0.01% dodecyl maltoside added to reduce nonspecific binding. Typically, two microliters of 50 nM GST-GFP and two microliters of bead suspension containing 10,000 beads (as determined using a hemacytometer) were added to six microliters of buffer, with or without some competitor, giving 10 nM GST-GFP in the suspension. The ten microliter assays were gently shaken in wells of a 96 V-shaped well plate (Corning Costar #2897) on a vortex mixer in a cold room for two hours.

Consider `CN(C)CC[C@H](CSc1ccccc1)Nc1ccc(S(=O)(=O)NC(=O)c2ccc(N3CCN(Cc4ccccc4-c4ccc(Cl)cc4)CC3)cc2)cc1[N+](=O)[O-]` [ABT737], for which the Ki at Bcl-2 family proteins is under 1 nM.
As for `O=C(O[C@@H]1Cc2c(O)cc(O)cc2O[C@@H]1c1cc(O)c(O)c(O)c1)c1cc(O)c(O)c(O)c1` [ECGC, epigallecatechin], in test [1], the “competition with FITC-Bid BH3 peptide” value is “binds to all six anti-apoptotic members of the Bcl-2-family, to variable extents”.
Take `Nc1nc2c(ncn2[C@@H]2O[C@H](COP(=O)(O)OP(=O)(O)O)[C@@H](O)[C@H]2O)c(=O)[nH]1` [GDP]: the EC50 at GST-Rab7 [2] was 560 nM.
At GST-GFP, `N[C@@H](CCC(=O)N[C@@H](CS)C(=O)NCC(=O)O)C(=O)O` [GSH, γ-glu-cys-gly] showed an EC50 of 39000 nM and a Ki of 35000 nM.
As for `Cc1cc(C)n2c1C=C1C=CC(CCC(=O)NCCNC(=O)OC3C(COP(=O)(O)OP(=O)(O)OP(=O)(O)O)OC(n4cnc5c(=O)[nH]c(N)nc54)C3O)=[N+]1[B-]2(F)F` (stereo not drawn) [GTP*], the rate of dissociation at GST-Rab7 [3] (1 mM GTP alone, 37° C.) worked out at 0.0096 s⁻¹. Moreover, the equilibrium dissociation constant (Kd) on GST-Rab7 [3] (GTP* binding to GST-Rab7) was 94 nM. Further, in the test on Ras superfamily members (fourplex), the specific binding affinities result is listed as “within a factor of two of each other”. For the same compound, the EC50s entry at Ras superfamily members (sixplex, 25 or 50 nM Bodipy-FL-GTP) was “within the same order of magnitude”.

(Values after US7785900B1, “Glutathione beads and GST fusion proteins” (STC.UNM, priority 2006, dated 2010).)
